Key:
Hep3B cell [1] = experiment: Toxicity test of drugs, Hep3B cell cultured in microtiter plate (2D monolayer in 96-wells); assay type: cell-based; conditions: read-out: IC50 (concentration of drug when 50% of cells shows the growth inhibition), Microtiter Plate (2D Hep3B cell monolayer in 96-wells), drug cultured for a day
Text: The values shown in the above Table were obtained based on the results of culturing the drug for a day, dying it immediately after the culturing, and scanning it.

Hep3B cell [2] = experiment: Toxicity test of drugs, Hep3B cell cultured in microarray cell chip (3D alginate culture on the chip); assay type: cell-based; conditions: read-out: IC50 (concentration of drug when 50% of cells shows the growth inhibition), Cell chip according to Invention (3D Hep3B cell culture on the chip); 3D Hep3B cell culture in alginate on the chip; drug cultured for a day; calcein AM / ethidium homodimer-1 staining
Procedure: The mixture of the alginate-Hep3B cell line primarily combined the upper substrate 100 formed on the spacer with the lower substrate 200 having 800 nl of culture medium in the well 210 to gelate the alginate, thereby removing the extra barium chloride. The upper substrate 100 is separated after removing the extra barium chloride and again combines with the lower substrate 200 having 800 nl of new culture medium in the well 210, thereby culturing the Hep3B cell.
After the culture ends, the Hep3B cell existing on the upper substrate 100 was dyed with the fluorescent material (calcein AM and ethidium homodimer-1).

| Structure (SMILES) | IC50 (Hep3B cell [1]) | IC50 (Hep3B cell [2]) |
| --- | --- | --- |
| CCN(CC)C(=O)/C(C#N)=C/c1cc(O)c(O)c([N+](=O)[O-])c1 [Entacapone] | 850 µM | 381 µM |
| CCN(CC)CCCC(C)Nc1ccnc2cc(Cl)ccc12 (stereo not drawn) [Chliroquine, Chloroquine] | 50 µM |  |
| Cc1ccc(C(=O)c2cc(O)c(O)c([N+](=O)[O-])c2)cc1 [Tolcapone] | 50 µM | 171 µM |
| CO[C@@]12[C@H](COC(N)=O)C3=C(C(=O)C(C)=C(N)C3=O)N1C[C@@H]1N[C@@H]12 [Mitomycin C] | 40 µM | 124 µM |
| O=C(O)Cc1ccccc1Nc1c(Cl)cccc1Cl [Diclofenac] | 230 µM | 375 µM |
